Experimental findings from BindingDB's records for doi:10.1016/0024-3205(82)90293-4 (University of Arizona, 1982) are described below.

This assay addresses Voltage-dependent L-type calcium channel subunit alpha-1C (Rattus norvegicus, UniProt P22002).

Where “and” joins values, the source holds several entries; their conditions need not be identical. Equal values may be shown once.

Sequence of Voltage-dependent L-type calcium channel subunit alpha-1C (P22002 whole entry): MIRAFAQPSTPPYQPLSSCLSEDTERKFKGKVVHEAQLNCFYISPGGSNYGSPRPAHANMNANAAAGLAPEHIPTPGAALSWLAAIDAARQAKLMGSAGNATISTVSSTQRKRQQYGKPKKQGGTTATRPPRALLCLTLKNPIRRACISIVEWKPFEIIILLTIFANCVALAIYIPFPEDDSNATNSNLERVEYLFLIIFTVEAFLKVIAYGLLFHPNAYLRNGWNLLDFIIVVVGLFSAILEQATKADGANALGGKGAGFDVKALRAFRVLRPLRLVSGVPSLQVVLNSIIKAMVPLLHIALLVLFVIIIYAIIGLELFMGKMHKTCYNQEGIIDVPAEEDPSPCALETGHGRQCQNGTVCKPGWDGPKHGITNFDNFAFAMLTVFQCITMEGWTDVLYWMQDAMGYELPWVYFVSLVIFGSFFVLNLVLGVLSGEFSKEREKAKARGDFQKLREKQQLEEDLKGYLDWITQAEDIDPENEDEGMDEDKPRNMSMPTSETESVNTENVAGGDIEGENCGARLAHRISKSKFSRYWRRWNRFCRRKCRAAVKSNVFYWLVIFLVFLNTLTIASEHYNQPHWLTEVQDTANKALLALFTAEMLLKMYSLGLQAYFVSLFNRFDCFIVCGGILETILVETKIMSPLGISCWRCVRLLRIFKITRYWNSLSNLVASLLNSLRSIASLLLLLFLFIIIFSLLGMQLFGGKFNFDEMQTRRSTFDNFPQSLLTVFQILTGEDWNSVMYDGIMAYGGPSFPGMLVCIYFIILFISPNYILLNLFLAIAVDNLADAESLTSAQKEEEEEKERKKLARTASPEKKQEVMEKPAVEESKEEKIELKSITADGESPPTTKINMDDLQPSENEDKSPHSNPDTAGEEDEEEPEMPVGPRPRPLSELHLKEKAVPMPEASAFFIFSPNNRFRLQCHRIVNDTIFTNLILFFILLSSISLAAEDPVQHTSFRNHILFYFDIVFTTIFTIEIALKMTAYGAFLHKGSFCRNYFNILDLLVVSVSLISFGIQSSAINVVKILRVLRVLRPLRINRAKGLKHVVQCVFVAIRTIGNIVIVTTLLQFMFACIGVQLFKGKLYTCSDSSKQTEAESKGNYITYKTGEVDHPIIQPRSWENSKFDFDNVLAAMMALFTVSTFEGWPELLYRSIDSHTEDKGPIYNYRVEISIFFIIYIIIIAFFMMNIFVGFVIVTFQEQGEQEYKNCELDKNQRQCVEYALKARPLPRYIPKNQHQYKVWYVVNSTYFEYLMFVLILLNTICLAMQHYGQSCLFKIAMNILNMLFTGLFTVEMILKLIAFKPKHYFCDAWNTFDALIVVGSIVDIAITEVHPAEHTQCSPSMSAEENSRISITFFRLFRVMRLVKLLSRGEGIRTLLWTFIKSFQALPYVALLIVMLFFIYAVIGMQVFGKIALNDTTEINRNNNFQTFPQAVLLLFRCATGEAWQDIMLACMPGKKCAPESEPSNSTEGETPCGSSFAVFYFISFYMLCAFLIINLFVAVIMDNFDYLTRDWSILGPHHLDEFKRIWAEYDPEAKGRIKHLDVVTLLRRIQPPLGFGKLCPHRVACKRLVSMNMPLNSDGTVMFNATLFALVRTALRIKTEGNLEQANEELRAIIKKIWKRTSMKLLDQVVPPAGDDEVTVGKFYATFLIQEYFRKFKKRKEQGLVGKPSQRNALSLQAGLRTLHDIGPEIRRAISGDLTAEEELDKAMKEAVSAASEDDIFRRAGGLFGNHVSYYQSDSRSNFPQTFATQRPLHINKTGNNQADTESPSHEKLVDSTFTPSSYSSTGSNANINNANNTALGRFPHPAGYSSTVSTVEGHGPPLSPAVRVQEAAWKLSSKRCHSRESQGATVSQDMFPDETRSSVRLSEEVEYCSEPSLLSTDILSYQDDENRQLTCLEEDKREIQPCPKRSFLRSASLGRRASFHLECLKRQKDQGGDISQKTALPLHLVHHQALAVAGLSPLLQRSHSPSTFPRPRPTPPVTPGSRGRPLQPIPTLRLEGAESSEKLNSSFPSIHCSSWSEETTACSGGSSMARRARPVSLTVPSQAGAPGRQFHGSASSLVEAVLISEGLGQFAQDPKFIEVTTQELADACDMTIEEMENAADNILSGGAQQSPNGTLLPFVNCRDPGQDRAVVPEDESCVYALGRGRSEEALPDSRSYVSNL

As usually defined, the Ki is a measure of affinity in units of concentration, obtained from inhibition or displacement. Turning to `COC(=O)C1C(C)=NC(C)=C(C(=O)OCC(C)C)C1c1ccccc1[N+](=O)[O-]` (stereo not drawn) [CAS_4499], the Ki was 0.33 nM and 0.5 nM.
Consider `COc1ccc(CCN(C)CCCC(C#N)(c2cc(OC)c(OC)c(OC)c2)C(C)C)cc1OC` (stereo not drawn) [GALLOPAMIL], for which the Ki is 42 nM.
With `COCCOC(=O)C1=C(C)N=C(C)C(C(=O)OC(C)C)C1c1cccc([N+](=O)[O-])c1` (stereo not drawn) [Nimotop], the Ki is 0.56 nM and 0.79 nM.
